Measurements: patent US20020028807A1, “Non-nucleoside reverse transcriptase inhibitors” (priority 2000, published 2002)

Columns and labels:
HIV-1 RT Y188L = target: T1, HIV-1 RT Y188L (Human immunodeficiency virus type 1 group M subtype B, UniProt P03366, Y787L); experiment: Reverse transcriptase (RT) assay, Y188L mutant; type: biochemical
T1 construct: an HIV RT clone pKRT2 containing only the RT p66 gene regulated by the lac operon/trc promoter; made in house; host or cells: E. coli JM109, vector pKK233-2
Procedure, shortened: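 Mutant HIV-1 RTs (bacterially expressed, purified heterodimers) were assayed like the wild-type enzyme: radiolabelled dGTP was incorporated during transcription of a DNA strand off a poly r(C) template with biotin-tagged oligo d(G) primer, and compound inhibition of this incorporation was determined.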

[1] = test system: HIV coding for mutant reverse transcriptase K103N/Y181C; experiment: ELISA (p24) assay of HIV replication in C8166 cell culture, K103N/Y181C virus; type: cell-based, HIV-1; conditions: Human immunodeficiency virus 1, C8166, 72 h, read-out: EC50 K103N/Y181C
Procedure: (§1) Compounds of the invention were tested for their ability to inhibit HIV replication in cell culture in a 96-well plate assay. Complete RPMI 1640, consisting of RPMI 1640+10% fetal bovine serum, 10 μg/ml gentamycin and 10 μM β-mercaptoethanol was used for dilution of the compound as well as cell growth medium. The T lymphocyte cell line C8166 was infected at a multiplicity of infection of 0.001 with viruses coding for wild-type and mutant reverse transcriptase. Cells were then incubated for three days in the presence of serial dilutions of the compounds of the invention. The supernatant was pooled from eight replica wells and the concentration of extracellular p24 was determined using a commercially available HIV-1 p24 antigen assay kit (Beckman-Coulter®). The level of inhibition (% inhibition) was calculated with the following equation: [formula]

[2] = test system: HIV coding for mutant reverse transcriptase K103N/V108I; experiment: ELISA (p24) assay of HIV replication in C8166 cell culture, K103N/V108I virus; type: cell-based, HIV-1; conditions: Human immunodeficiency virus 1, C8166, 72 h, read-out: EC50 K103N/V108I
Procedure: as §1

SMILES: CCN1c2ncc(CCOc3cc[n+]([O-])c4ccccc34)cc2C(=O)N(C)c2ccc(F)nc21 [compound 11, 5,11-Dihydro-11-ethyl-2-fluoro-5-methyl-8-{2-{(1-oxido-4-quinolinyl)oxy}-ethyl}-6H-dipyrido[3,2-b:2′,3′-e][1,4]diazepin-6-one]
- IC50 (HIV-1 RT Y188L): 661 nM
- EC50 [1]: 7.5 nM
- EC50 [2]: 3.9 nM

SMILES: CCN1c2ncc(CCOc3cc[n+]([O-])c4ccccc34)cc2C(=O)N(C)c2cccnc21 [compound 21, 5,11-Dihydro-11-ethyl-5-methyl-8-{2-{(1-oxido-4-quinolinyl)oxy}ethyl}-6H-dipyrido[3,2-b:2′,3′-e][1,4]diazepin-6-one]
- IC50 (HIV-1 RT Y188L): 1360 nM
- EC50 [1]: 4.3 nM
- EC50 [2]: 5 nM

SMILES: CCN1c2ncc(CCOc3cc[n+]([O-])c4ccccc34)cc2C(=O)N(C)c2ccc(Cl)nc21 [compound 17, 2-Chloro-5,11-dihydro-11-ethyl-5-methyl-8-{2-{(1-oxido-4-quinolinyl)oxy}-ethyl}-6H-dipyrido[3,2-b:2′,3′-e][1,4]diazepin-6-one]
- IC50 (HIV-1 RT Y188L): 198 nM
- EC50 [1]: 2.3 nM
- EC50 [2]: 2.7 nM
